Reference: ChEMBL document CHEMBL4219237, “Design, synthesis, evaluation, and molecular docking of ursolic acid derivatives containing a nitrogen heterocycle as anti-inflammatory agents” (Bioorg Med Chem Lett, 2018)

Columns and labels:
[1] = test system: Mus musculus; assay: Antiinflammatory activity in mouse assessed as inhibition of para-xylene-induced ear edema at 100 mg/kg, ip administered 30 mins prior to para-xylene challenge measured after 30 mins relative to control; assay type: functional
[2] = test system: HCT-116; assay: Cytotoxicity against human HCT116 cells assessed as growth inhibition after 24 hrs by MTT assay; assay type: cell-based; settings: HCT-116, 24 h
[3] = test system: Mus musculus; assay: Potency index, ratio of test compound to ibuprofen activity in mouse assessed as inhibition of para-xylene-induced ear edema at 100 mg/kg, ip; assay type: functional
[4] = test system: Mus musculus; assay: Antiinflammatory activity in mouse assessed as inhibition of para-xylene-induced ear edema at 100 mg/kg, po measured at 1 hr relative to control; assay type: functional
[5] = test system: Mus musculus; assay: Antiinflammatory activity in mouse assessed as inhibition of para-xylene-induced ear edema at 100 mg/kg, po measured at 4 hrs relative to control; assay type: functional
[6] = test system: Mus musculus; assay: Antiinflammatory activity in mouse assessed as inhibition of para-xylene-induced ear edema at 100 mg/kg, po measured at 2 hrs relative to control; assay type: functional
[7] = test system: L02; assay: Cytotoxicity against human L02 cells assessed as growth inhibition after 24 hrs by MTT assay; assay type: cell-based; settings: L02, 24 h
[8] = test system: Mus musculus; assay: Antiinflammatory activity in mouse assessed as inhibition of para-xylene-induced ear edema at 100 mg/kg, po measured at 3 hrs relative to control; assay type: functional
[9] = test system: Mus musculus; assay: Antiinflammatory activity in mouse assessed as inhibition of para-xylene-induced ear edema at 50 mg/kg, po measured at 2 hrs relative to control; assay type: functional
[10] = test system: Mus musculus; assay: Antiinflammatory activity in mouse assessed as inhibition of para-xylene-induced ear edema at 25 mg/kg, po measured at 2 hrs relative to control; assay type: functional
[11] = test system: Mus musculus; assay: Antiinflammatory activity in mouse assessed as inhibition of para-xylene-induced ear edema at 125 mg/kg, po measured at 2 hrs relative to control; assay type: functional
[12] = test system: Mus musculus; assay: Antiinflammatory activity in mouse assessed as inhibition of para-xylene-induced ear edema at 100 mg/kg, po measured at 5 hrs relative to control; assay type: functional
[13] = test system: AGS; assay: Cytotoxicity against human AGS cells assessed as growth inhibition after 24 hrs by MTT assay; assay type: cell-based

## C[C@H]1[C@H](C)CC[C@]2(C(=O)OCc3nnc(-c4ccc(Br)cc4)o3)CC[C@]3(C)C(=CC[C@@H]4[C@@]5(C)CC[C@H](O)C(C)(C)[C@@H]5CC[C@]43C)[C@H]12
[1]
  inhibition in vivo at 100 mg/kg: 68.9%
[2]
  IC50: > 100 µM

## C[C@H]1[C@H](C)CC[C@]2(C(=O)OCCCN3CCN(Cc4nnc(-c5ccccc5)o4)CC3)CC[C@]3(C)C(=CC[C@@H]4[C@@]5(C)CC[C@H](O)C(C)(C)[C@@H]5CC[C@]43C)[C@H]12
[1]
  inhibition in vivo at 100 mg/kg: 47.8%
[2]
  IC50: > 100 µM

## C[C@H]1[C@H](C)CC[C@]2(C(=O)OCCn3ncn(-c4ccccc4)c3=O)CC[C@]3(C)C(=CC[C@@H]4[C@@]5(C)CC[C@H](O)C(C)(C)[C@@H]5CC[C@]43C)[C@H]12
[1]
  inhibition in vivo at 100 mg/kg: 64.2%
[2]
  IC50: > 100 µM

## C[C@H]1[C@H](C)CC[C@]2(C(=O)OCc3nnc(-c4ccccc4Cl)o3)CC[C@]3(C)C(=CC[C@@H]4[C@@]5(C)CC[C@H](O)C(C)(C)[C@@H]5CC[C@]43C)[C@H]12
[1]
  inhibition in vivo at 100 mg/kg: 38.8%
[2]
  IC50: > 100 µM

## C[C@H]1[C@H](C)CC[C@]2(C(=O)OCCCN3CCN(Cc4nnc(-c5ccccc5Cl)o4)CC3)CC[C@]3(C)C(=CC[C@@H]4[C@@]5(C)CC[C@H](O)C(C)(C)[C@@H]5CC[C@]43C)[C@H]12
[1]
  inhibition in vivo at 100 mg/kg: 32%
[2]
  IC50: > 100 µM

## C[C@H]1[C@H](C)CC[C@]2(C(=O)OCCCCCn3ncn(-c4ccccc4)c3=O)CC[C@]3(C)C(=CC[C@@H]4[C@@]5(C)CC[C@H](O)C(C)(C)[C@@H]5CC[C@]43C)[C@H]12
[3]
  Ratio: 2
[1]
  inhibition in vivo at 100 mg/kg: 56.7%
[2]
  IC50: > 100 µM

## C[C@H]1[C@H](C)CC[C@]2(C(=O)OCc3nnc(-c4ccc(Cl)cc4)o3)CC[C@]3(C)C(=CC[C@@H]4[C@@]5(C)CC[C@H](O)C(C)(C)[C@@H]5CC[C@]43C)[C@H]12
[2]
  IC50: > 100 µM

## C[C@H]1[C@H](C)CC[C@]2(C(=O)OCCCN3CCN(Cc4nnc(-c5ccc(F)cc5)o4)CC3)CC[C@]3(C)C(=CC[C@@H]4[C@@]5(C)CC[C@H](O)C(C)(C)[C@@H]5CC[C@]43C)[C@H]12
[1]
  inhibition in vivo at 100 mg/kg: 58.7%
[2]
  IC50: > 100 µM

## Cc1ccc(-c2nnc(COC(=O)[C@]34CC[C@@H](C)[C@H](C)[C@H]3C3=CC[C@@H]5[C@@]6(C)CC[C@H](O)C(C)(C)[C@@H]6CC[C@@]5(C)[C@]3(C)CC4)o2)cc1
[1]
  inhibition in vivo at 100 mg/kg: 58.2%
[2]
  IC50: > 100 µM

## C[C@H]1[C@H](C)CC[C@]2(C(=O)OCCN3CCN(Cc4nnc(-c5cccc(Br)c5)o4)CC3)CC[C@]3(C)C(=CC[C@@H]4[C@@]5(C)CC[C@H](O)C(C)(C)[C@@H]5CC[C@]43C)[C@H]12
[1]
  inhibition in vivo at 100 mg/kg: 61%
[2]
  IC50: > 100 µM

## C[C@H]1[C@H](C)CC[C@]2(C(=O)OCCCCn3ncn(-c4ccccc4)c3=O)CC[C@]3(C)C(=CC[C@@H]4[C@@]5(C)CC[C@H](O)C(C)(C)[C@@H]5CC[C@]43C)[C@H]12
[3]
  Ratio: 2
[1]
  inhibition in vivo at 100 mg/kg: 66.1%
[2]
  IC50: > 100 µM

## Cc1ccccc1-c1nnc(COC(=O)[C@]23CC[C@@H](C)[C@H](C)[C@H]2C2=CC[C@@H]4[C@@]5(C)CC[C@H](O)C(C)(C)[C@@H]5CC[C@@]4(C)[C@]2(C)CC3)o1
[1]
  inhibition in vivo at 100 mg/kg: 57.2%
[2]
  IC50: > 100 µM

## C[C@H]1[C@H](C)CC[C@]2(C(=O)OCCCn3ncn(-c4ccccc4)c3=O)CC[C@]3(C)C(=CC[C@@H]4[C@@]5(C)CC[C@H](O)C(C)(C)[C@@H]5CC[C@]43C)[C@H]12
[3]
  Ratio: 2
[4]
  inhibition in vivo at 100 mg/kg: 22.6%
[5]
  inhibition in vivo at 100 mg/kg: 20.2%
[1]
  inhibition in vivo at 100 mg/kg: 69.8%
[6]
  inhibition in vivo at 100 mg/kg: 41.2 to 47.9%
[7]
  IC50: > 200 µM
[8]
  inhibition in vivo at 100 mg/kg: 29.7%
[9]
  inhibition in vivo at 50 mg/kg: 35.2%
[2]
  IC50: > 100 µM
[10]
  inhibition in vivo at 25 mg/kg: 19.7%
[11]
  inhibition in vivo at 125 mg/kg: 50.1%
[12]
  inhibition in vivo at 100 mg/kg: 16.4%
[13]
  IC50: > 200 µM

## C[C@H]1[C@H](C)CC[C@]2(C(=O)OCc3nnc(-c4ccccc4)o3)CC[C@]3(C)C(=CC[C@@H]4[C@@]5(C)CC[C@H](O)C(C)(C)[C@@H]5CC[C@]43C)[C@H]12
[1]
  inhibition in vivo at 100 mg/kg: 62.3%
[2]
  IC50: > 100 µM

## C[C@H]1[C@H](C)CC[C@]2(C(=O)OCCCN3CCN(Cc4nnc(-c5cccc(Br)c5)o4)CC3)CC[C@]3(C)C(=CC[C@@H]4[C@@]5(C)CC[C@H](O)C(C)(C)[C@@H]5CC[C@]43C)[C@H]12
[1]
  inhibition in vivo at 100 mg/kg: 66.5%
[2]
  IC50: > 100 µM

## C[C@H]1[C@H](C)CC[C@]2(C(=O)OCc3nnc(-c4cccc(Cl)c4)o3)CC[C@]3(C)C(=CC[C@@H]4[C@@]5(C)CC[C@H](O)C(C)(C)[C@@H]5CC[C@]43C)[C@H]12
[1]
  inhibition in vivo at 100 mg/kg: 65.4%
[2]
  IC50: > 100 µM

## C[C@H]1[C@H](C)CC[C@]2(C(=O)OCc3nnc(-c4ccccc4Br)o3)CC[C@]3(C)C(=CC[C@@H]4[C@@]5(C)CC[C@H](O)C(C)(C)[C@@H]5CC[C@]43C)[C@H]12
[1]
  inhibition in vivo at 100 mg/kg: 55.3%
[2]
  IC50: > 100 µM

## C[C@H]1[C@H](C)CC[C@]2(C(=O)OCCN3CCN(Cc4nnc(-c5ccccc5)o4)CC3)CC[C@]3(C)C(=CC[C@@H]4[C@@]5(C)CC[C@H](O)C(C)(C)[C@@H]5CC[C@]43C)[C@H]12
[1]
  inhibition in vivo at 100 mg/kg: 59.1%
[2]
  IC50: > 100 µM

## C[C@H]1[C@H](C)CC[C@]2(C(=O)OCc3nnc(-c4cccc(Br)c4)o3)CC[C@]3(C)C(=CC[C@@H]4[C@@]5(C)CC[C@H](O)C(C)(C)[C@@H]5CC[C@]43C)[C@H]12
[1]
  inhibition in vivo at 100 mg/kg: 53.7%
[2]
  IC50: > 100 µM

## Cc1cccc(-c2nnc(COC(=O)[C@]34CC[C@@H](C)[C@H](C)[C@H]3C3=CC[C@@H]5[C@@]6(C)CC[C@H](O)C(C)(C)[C@@H]6CC[C@@]5(C)[C@]3(C)CC4)o2)c1
[2]
  IC50: > 100 µM

## CC(C)Cc1ccc(C(C)C(=O)O)cc1 (configuration not stated) [IBUPROFEN]
[1]
  inhibition in vivo at 100 mg/kg: 25.2%

## COc1ccc2c(c1)c(CC(=O)O)c(C)n2C(=O)c1ccc(Cl)cc1 [INDOMETHACIN]
[4]
  inhibition in vivo at 100 mg/kg: 12%
[5]
  inhibition in vivo at 100 mg/kg: 15.6%
[1]
  inhibition in vivo at 100 mg/kg: 26.8%
[6]
  inhibition in vivo at 100 mg/kg: 30.9 to 33.3%
[8]
  inhibition in vivo at 100 mg/kg: 18.6%
[9]
  inhibition in vivo at 50 mg/kg: 22.8%
[10]
  inhibition in vivo at 25 mg/kg: 4.85%
[11]
  inhibition in vivo at 125 mg/kg: 38.7%
[12]
  inhibition in vivo at 100 mg/kg: 10.3%

## C[C@H]1[C@H](C)CC[C@]2(C(=O)O)CC[C@]3(C)C(=CC[C@@H]4[C@@]5(C)CC[C@H](O)C(C)(C)[C@@H]5CC[C@]43C)[C@H]12 [URSOLIC ACID]
[1]
  inhibition in vivo at 100 mg/kg: 57.7%
